Measurements published in US11046694B2, “Compounds and methods for treating bacterial infections” (Entasis Therapeutics, Inc., priority 2018, dated 2021).
In brackets after ≈: the same amount, converted by molar mass. Where a name gives a salt, the structure may show the parent alone.

What was measured:
A. baumannii (ARC3495) = assay: MIC against A. baumannii; conditions: for MIC: Acinetobacter baumannii, read-out: A. baumannii MIC (ARC3495) (mg/L)
E. coli (ATCC25922) = assay: MIC against E. coli; conditions: for MIC: Escherichia coli, ATCC25922, read-out: E. coli MIC (ATCC25922) (mg/L)
P. aeruginosa PBP3 = P. aeruginosa PBP3 (Pseudomonas aeruginosa, UniProt G3XD46); type: biochemical; conditions: P. aeruginosa PBP3 60 nM, BOCILLIN FL 30 nM, pH 7.0
P. aeruginosa WT (PAO1) = assay: MIC, CLSI broth microdilution, P. aeruginosa; type: cell-based; conditions: CLSI broth microdilution; for MIC: Pseudomonas aeruginosa, PAO1, read-out: P. aeruginosa WT (PAO1) MIC
P. aeruginosa PBP2 = target: T1, P. aeruginosa PBP2 (Pseudomonas aeruginosa, UniProt Q9X6V3); type: biochemical; conditions: P. aeruginosa PBP2 300 nM, BOCILLIN FL 30 nM, pH 6.2
T1 sequence (Q9X6V3 1-646): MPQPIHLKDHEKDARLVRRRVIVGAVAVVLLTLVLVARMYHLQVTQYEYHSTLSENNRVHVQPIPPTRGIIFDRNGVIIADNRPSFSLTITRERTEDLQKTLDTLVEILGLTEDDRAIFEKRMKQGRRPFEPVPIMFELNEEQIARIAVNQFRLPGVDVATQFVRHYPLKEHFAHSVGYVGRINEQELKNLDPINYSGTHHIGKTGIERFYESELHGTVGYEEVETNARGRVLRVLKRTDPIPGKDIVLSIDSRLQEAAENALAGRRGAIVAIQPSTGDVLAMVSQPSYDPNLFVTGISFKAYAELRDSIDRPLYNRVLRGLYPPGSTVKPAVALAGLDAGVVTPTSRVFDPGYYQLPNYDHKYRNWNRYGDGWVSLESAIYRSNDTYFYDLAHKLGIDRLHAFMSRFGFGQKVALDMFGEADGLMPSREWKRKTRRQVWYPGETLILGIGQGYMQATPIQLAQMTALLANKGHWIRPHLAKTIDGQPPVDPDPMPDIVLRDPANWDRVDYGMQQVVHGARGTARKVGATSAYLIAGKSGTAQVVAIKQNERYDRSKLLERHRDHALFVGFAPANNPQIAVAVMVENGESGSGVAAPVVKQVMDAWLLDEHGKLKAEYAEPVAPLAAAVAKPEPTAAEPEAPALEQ

[1] = system: K. pneumoniae (ATCC700603); assay: MIC against K. pneumoniae; conditions: for MIC: Klebsiella pneumoniae, ATCC700603, read-out: K. pneumoniae MIC (ATCC700603)
P. aeruginosa PBP1a = P. aeruginosa PBP1a (Pseudomonas aeruginosa, UniProt Q07806); type: biochemical; conditions: P. aeruginosa PBP1a 60 nM, BOCILLIN FL 30 nM, pH 7.0
Sequence of P. aeruginosa PBP1a (Q07806 whole entry): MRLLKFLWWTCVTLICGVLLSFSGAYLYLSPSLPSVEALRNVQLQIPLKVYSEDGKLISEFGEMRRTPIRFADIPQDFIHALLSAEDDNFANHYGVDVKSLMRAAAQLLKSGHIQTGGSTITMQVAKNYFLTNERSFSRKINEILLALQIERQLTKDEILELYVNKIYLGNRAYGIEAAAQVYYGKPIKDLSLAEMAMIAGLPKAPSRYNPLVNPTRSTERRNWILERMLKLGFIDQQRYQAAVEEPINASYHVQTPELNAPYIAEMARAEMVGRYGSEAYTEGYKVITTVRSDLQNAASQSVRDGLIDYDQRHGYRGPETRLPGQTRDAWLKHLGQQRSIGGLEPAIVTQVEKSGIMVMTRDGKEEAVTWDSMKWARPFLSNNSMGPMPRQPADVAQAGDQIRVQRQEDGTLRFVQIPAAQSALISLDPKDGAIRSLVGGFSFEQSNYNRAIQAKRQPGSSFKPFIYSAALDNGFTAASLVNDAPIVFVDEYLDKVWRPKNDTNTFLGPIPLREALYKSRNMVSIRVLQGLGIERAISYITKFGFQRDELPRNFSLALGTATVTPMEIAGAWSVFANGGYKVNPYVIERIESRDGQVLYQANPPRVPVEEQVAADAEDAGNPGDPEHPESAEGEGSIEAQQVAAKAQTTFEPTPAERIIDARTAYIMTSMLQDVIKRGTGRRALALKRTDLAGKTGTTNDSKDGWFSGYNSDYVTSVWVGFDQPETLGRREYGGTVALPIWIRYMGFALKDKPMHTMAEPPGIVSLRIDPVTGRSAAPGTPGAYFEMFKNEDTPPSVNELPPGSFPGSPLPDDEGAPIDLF

Sequence of P. aeruginosa PBP3 (G3XD46 whole entry): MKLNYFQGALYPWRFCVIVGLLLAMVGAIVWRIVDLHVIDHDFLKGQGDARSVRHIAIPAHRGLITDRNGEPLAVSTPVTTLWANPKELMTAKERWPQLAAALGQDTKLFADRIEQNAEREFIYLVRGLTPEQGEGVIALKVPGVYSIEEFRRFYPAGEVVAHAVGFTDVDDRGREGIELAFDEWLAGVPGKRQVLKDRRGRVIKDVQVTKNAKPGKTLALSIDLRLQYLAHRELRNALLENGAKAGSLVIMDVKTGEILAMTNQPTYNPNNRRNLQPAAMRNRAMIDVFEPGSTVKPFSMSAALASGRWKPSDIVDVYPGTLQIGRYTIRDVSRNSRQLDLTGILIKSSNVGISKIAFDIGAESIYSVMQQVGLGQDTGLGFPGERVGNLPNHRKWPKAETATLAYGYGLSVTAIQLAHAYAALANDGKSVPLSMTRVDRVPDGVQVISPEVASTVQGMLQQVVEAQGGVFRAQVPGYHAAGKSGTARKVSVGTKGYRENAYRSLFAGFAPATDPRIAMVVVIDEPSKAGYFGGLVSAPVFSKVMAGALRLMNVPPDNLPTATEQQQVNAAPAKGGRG

MIC (A. baumannii (ARC3495)) [mg/L]	MIC (E. coli (ATCC25922)) [mg/L]	MIC (P. aeruginosa WT (PAO1)) [µg/mL]	MIC [1] [µg/mL]	A. baumannii MIC (ARC3495) (mg/L) (A. baumannii (ARC3495))	E. coli MIC (ATCC25922) (mg/L) (E. coli (ATCC25922))	P. aeruginosa WT (PAO1) MIC (mg/L) (P. aeruginosa WT (PAO1))	K. pneumoniae MIC (ATCC700603) [1]	SMILES	PBP3 acylation rate, k(on) (M^−1 · s^−1) (P. aeruginosa PBP3)	PBP2 acylation rate, k(on) (M^−1 · s^−1) (P. aeruginosa PBP2)	PBP1a acylation rate, k(on) (M^−1 · s^−1) (P. aeruginosa PBP1a)
> 16	< 8	> 16	> 16					CCN/C(=N\O)[C@@H]1c2c(cnn2C)[C@@H]2CN1C(=O)N2OS(=O)(=O)O (racemic) [Example 5]	** (** represents a k(on) of 100 to 10,000 M^−1 · s^−1)	* (* represents a k(on) < 100 M^−1 · s^−1)	** (** represents a k(on) of 100 to 10,000 M^−1 · s^−1)
> 16	8 to 16 (≈ 19.2 to 38.3 µM)	8 to 16 (≈ 19.2 to 38.3 µM)	> 16					CN/C(=N\OCCCCN)[C@@H]1c2c(cnn2C)[C@@H]2CN1C(=O)N2OS(=O)(=O)O (racemic) [Example 6]	** (** represents a k(on) of 100 to 10,000 M^−1 · s^−1)	* (* represents a k(on) < 100 M^−1 · s^−1)	* (* represents a k(on) < 100 M^−1 · s^−1)
> 16	8 to 16 (≈ 20.5 to 41.1 µM)	8 to 16 (≈ 20.5 to 41.1 µM)	8 to 16 (≈ 20.5 to 41.1 µM)					CN/C(=N\OCCN)[C@@H]1c2c(cnn2C)[C@@H]2CN1C(=O)N2OS(=O)(=O)O (racemic) [Example 7]	** (** represents a k(on) of 100 to 10,000 M^−1 · s^−1)	* (* represents a k(on) < 100 M^−1 · s^−1)	* (* represents a k(on) < 100 M^−1 · s^−1)
> 16	< 8	> 16	> 16					Cn1ncc2c1[C@@H](/C(=N/O)NCCCCN)N1C[C@@H]2N(OS(=O)(=O)O)C1=O (racemic) [Example 8]	* (* represents a k(on) < 100 M^−1 · s^−1)	* (* represents a k(on) < 100 M^−1 · s^−1)	* (* represents a k(on) < 100 M^−1 · s^−1)
8 to 16 (≈ 22.1 to 44.2 µM)	< 8	< 8	8 to 16 (≈ 22.1 to 44.2 µM)					CN(O)/C(=N\O)[C@@H]1c2c(cnn2C)[C@@H]2CN1C(=O)N2OS(=O)(=O)O (racemic) [Example 9]	** (** represents a k(on) of 100 to 10,000 M^−1 · s^−1)	* (* represents a k(on) < 100 M^−1 · s^−1)	** (** represents a k(on) of 100 to 10,000 M^−1 · s^−1)
> 16	8 to 16 (≈ 23 to 45.9 µM)	> 16	8 to 16 (≈ 23 to 45.9 µM)					Cn1ncc2c1[C@@H](/C(=N/O)NO)N1C[C@@H]2N(OS(=O)(=O)O)C1=O (racemic) [Example 10]	** (** represents a k(on) of 100 to 10,000 M^−1 · s^−1)	* (* represents a k(on) < 100 M^−1 · s^−1)	* (* represents a k(on) < 100 M^−1 · s^−1)
8 to 16 (≈ 22.1 to 44.2 µM)	< 8	8 to 16 (≈ 22.1 to 44.2 µM)	< 8					CON/C(=N\O)[C@@H]1c2c(cnn2C)[C@@H]2CN1C(=O)N2OS(=O)(=O)O (racemic) [Example 11]	*** (*** represents a k(on) > 10,000 M^−1 · s^−1)	* (* represents a k(on) < 100 M^−1 · s^−1)	** (** represents a k(on) of 100 to 10,000 M^−1 · s^−1)
> 16	< 8	> 16	> 16					Cn1ncc2c1[C@@H](/C(=N/O)NCc1ccc(N)cc1)N1C[C@@H]2N(OS(=O)(=O)O)C1=O (racemic) [Example 12]	** (** represents a k(on) of 100 to 10,000 M^−1 · s^−1)	* (* represents a k(on) < 100 M^−1 · s^−1)	** (** represents a k(on) of 100 to 10,000 M^−1 · s^−1)
> 16	< 8	> 16	> 16					Cn1ncc2c1[C@@H](/C(C#N)=N/O)N1C[C@@H]2N(OS(=O)(=O)O)C1=O (racemic) [Example 13]	** (** represents a k(on) of 100 to 10,000 M^−1 · s^−1)	* (* represents a k(on) < 100 M^−1 · s^−1)	* (* represents a k(on) < 100 M^−1 · s^−1)
> 16	< 8	> 16	> 16					Cn1ncc2c1[C@@H](C1=NOC(C(=O)O)C1)N1C[C@@H]2N(OS(=O)(=O)O)C1=O (mixture of isomers) [Example 35, 3-((4R,8S)-1-methyl-6-oxo-5-(sulfooxy)-4,5,6,8-tetrahydro-1H-4,7-methanopyrazolo[3,4-e][1,3]diazepin-8-yl)-4,5-dihydroisoxazole-5-carboxylic acid]	** (** represents a k(on) of 100 to 10,000 M^−1 · s^−1)	* (* represents a k(on) < 100 M^−1 · s^−1)	* (* represents a k(on) < 100 M^−1 · s^−1)
> 16	< 8	> 16	> 16					Cn1ncc2c1[C@@H](C1=NOC(Cc3ccccc3)C1)N1C[C@@H]2N(OS(=O)(=O)O)C1=O (mixture of isomers) [Example 36]	** (** represents a k(on) of 100 to 10,000 M^−1 · s^−1)	* (* represents a k(on) < 100 M^−1 · s^−1)	** (** represents a k(on) of 100 to 10,000 M^−1 · s^−1)
				* (* represents an MIC > 16 mg/L)	*** (*** represents an MIC < 8 mg/L)	* (* represents an MIC > 16 mg/L)	* (* represents an MIC > 16 mg/L)	Cn1ncc2c1[C@@H](C1=NOC(Cc3ccccc3)C1)N1C[C@@H]2N(OS(=O)(=O)O)C1=O (mixture of isomers) [Example 37]	** (** represents a k(on) of 100 to 10,000 M^−1 · s^−1)	* (* represents a k(on) < 100 M^−1 · s^−1)	* (* represents a k(on) < 100 M^−1 · s^−1)
> 16	< 8	> 16	> 16					CN1C(=O)C(C)(C)ON=C1[C@@H]1c2c(cnn2C)[C@@H]2CN1C(=O)N2OS(=O)(=O)O [Example 65]	** (** represents a k(on) of 100 to 10,000 M^−1 · s^−1)		** (** represents a k(on) of 100 to 10,000 M^−1 · s^−1)
> 16	8 to 16 (≈ 16 to 32 µM)	8 to 16 (≈ 16 to 32 µM)	8 to 16 (≈ 16 to 32 µM)					CN/C(=N\OCC(=O)NOS(=O)(=O)O)[C@@H]1c2c(cnn2C)[C@@H]2CN1C(=O)N2OS(=O)(=O)O [Example 73, pyridium ((2-((((Z)-((4R,8S)-1-methyl-6-oxo-5-(sulfooxy)-4,5,6,8-tetrahydro-1H-4,7-methanopyrazolo[3,4-e][1,3]diazepin-8-yl)(methylamino)methylene)amino)oxy)acetamido)oxy)sulfonic acid]	*** (*** represents a k(on) > 10,000 M^−1 · s^−1)		** (** represents a k(on) of 100 to 10,000 M^−1 · s^−1)

SMILES	MIC (A. baumannii (ARC3495)) [mg/L]	MIC (E. coli (ATCC25922)) [mg/L]	MIC (P. aeruginosa WT (PAO1)) [µg/mL]	MIC [1] [µg/mL]	A. baumannii MIC (ARC3495) (mg/L) (A. baumannii (ARC3495))	E. coli MIC (ATCC25922) (mg/L) (E. coli (ATCC25922))	P. aeruginosa WT (PAO1) MIC (mg/L) (P. aeruginosa WT (PAO1))	K. pneumoniae MIC (ATCC700603) [1]	PBP3 acylation rate, k(on) (M^−1 · s^−1) (P. aeruginosa PBP3)	PBP2 acylation rate, k(on) (M^−1 · s^−1) (P. aeruginosa PBP2)	PBP1a acylation rate, k(on) (M^−1 · s^−1) (P. aeruginosa PBP1a)
CN/C(=N\OC(N)=O)[C@@H]1c2c(cnn2C)[C@@H]2CN1C(=O)N2OS(=O)(=O)O (racemic) [Example 14, pyridium (4R,8S)-8-((Z)—N′-(carbamoyloxy)-N-methylcarbamimidoyl)-1-methyl-6-oxo-4,8-dihydro-1H-4,7-methanopyrazolo[3,4-e][1,3]diazepin-5(6H)-yl hydrogen sulfate]	8 to 16	< 8	< 8	< 8					*** (*** represents a k(on) > 10,000 M^−1 · s^−1)	* (* represents a k(on) < 100 M^−1 · s^−1)	** (** represents a k(on) of 100 to 10,000 M^−1 · s^−1)
CN/C(=N\OC(C)=O)[C@@H]1c2c(cnn2C)[C@@H]2CN1C(=O)N2OS(=O)(=O)O [Example 69, pyridium (4R,8S)-8-((Z)—N′-acetoxy-N-methylcarbamimidoyl)-1-methyl-6-oxo-4,8-dihydro-1H-4,7-methanopyrazolo[3,4-e][1,3]diazepin-5(6H)-hydrogen sulfate]	> 16	8 to 16	> 16	8 to 16					*** (*** represents a k(on) > 10,000 M^−1 · s^−1)		** (** represents a k(on) of 100 to 10,000 M^−1 · s^−1)
